This is an account of results in patent publication US6610677B2, “Pyrazole compounds useful as protein kinase inhibitors” (Vertex Pharmaceuticals Incorporated, priority 2000, dated 2003).

What is called Ki is a measure of affinity in units of concentration, obtained from inhibition or displacement. A high value points to a looser hold on the target. A word on the melting point: it is the temperature, or range, at which the solid turns liquid.

A value given as a limit tells only on which side of the number the result lay.

In one data set the target is T1, GSK-3β (AA 1-420) (Homo sapiens, UniProt P49841).
T1 construct: GSK-3β (AA 1-420)
T1 sequence (P49841 whole entry, the tested form may be a part): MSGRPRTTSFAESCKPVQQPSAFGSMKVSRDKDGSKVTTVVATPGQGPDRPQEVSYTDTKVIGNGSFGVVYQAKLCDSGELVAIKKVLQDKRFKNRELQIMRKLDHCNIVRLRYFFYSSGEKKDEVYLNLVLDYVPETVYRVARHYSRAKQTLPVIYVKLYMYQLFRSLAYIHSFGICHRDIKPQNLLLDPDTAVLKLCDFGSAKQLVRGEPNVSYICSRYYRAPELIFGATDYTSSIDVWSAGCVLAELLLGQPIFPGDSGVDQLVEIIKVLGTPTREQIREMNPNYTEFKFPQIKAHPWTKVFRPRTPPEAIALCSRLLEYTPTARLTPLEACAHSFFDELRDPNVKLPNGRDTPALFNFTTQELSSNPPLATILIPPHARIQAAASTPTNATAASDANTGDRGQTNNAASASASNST
Description: Ki determination for the inhibition of GSK-3 (coupled enzyme system). The conditions noted are these: 20 μM ATP, 300 μM peptide, 20 nM GSK-3β, 30° C. The format is biochemical. In a few lines: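 Pyruvate kinase/lactate dehydrogenase-coupled NADH assay with 20 nM GSK-3β (AA 1-420), 20 μM ATP, 300 μM phosphopeptide HSSPHQS(PO3H2)EDEEE in HEPES pH 7.5, 1.5% DMSO, 30 °C. Compound (12 points, 0.002–30 μM) preincubated 10 min before ATP start; Ki derived from 10-min rates versus inhibitor concentration.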

The next data set has as its target T2, Aurora-2 (Homo sapiens, UniProt O14965).
T2 sequence (O14965 1-403): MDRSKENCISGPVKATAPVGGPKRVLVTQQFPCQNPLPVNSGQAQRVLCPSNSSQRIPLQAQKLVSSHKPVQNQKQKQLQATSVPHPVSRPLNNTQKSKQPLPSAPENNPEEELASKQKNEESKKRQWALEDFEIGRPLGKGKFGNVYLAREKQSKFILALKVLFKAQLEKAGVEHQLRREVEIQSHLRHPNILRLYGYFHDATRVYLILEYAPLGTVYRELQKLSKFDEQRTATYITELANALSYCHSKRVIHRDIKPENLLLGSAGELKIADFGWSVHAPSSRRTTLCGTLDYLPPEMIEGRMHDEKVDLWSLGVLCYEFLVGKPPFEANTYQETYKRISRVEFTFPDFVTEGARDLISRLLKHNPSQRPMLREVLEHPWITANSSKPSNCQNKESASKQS
Description: Ki determination for the inhibition of Aurora-2 (coupled enzyme assay). The conditions noted are these: 70 nM Aurora-2, peptide LRRASLG, 30° C. It is filed as biochemical. In a few lines: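 Ki came from reaction rates plotted against inhibitor concentration, with rates taken as A340 decrease over 5 min at 30° C. Enzyme (70 nM final) was added after 10 min compound preincubation; stock buffer held […], 800 μM LRRASLG, PK/LDH coupling, pH 7.5.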

For the molecule `Cc1cc(Nc2cc(-c3ccccc3)nc3ccccc23)n[nH]1` [Compound V-4, (5-Methyl-2H-pyrazol-3-yl)-(2-phenyl-quinolin-4-yl)-amine], the melting point lay within 242 to 244 °C. The molecule also showed a Ki at GSK-3β (AA 1-420) of 1000 to 20000 nM. The Ki at Aurora-2 lay within 100 to 1000 nM.
The like results for `Cc1cc(Nc2n[nH]c3ccccc23)nc(-c2ccccc2C(F)(F)F)n1` [II-19, (1H-Indazol-3-yl)-[6-methyl-2-(2-trifluoromethyl-phenyl)-pyrimidin-4-yl]-amine] were, in that order, 235 to 237 °C, under 100 nM and 1000 to 20000 nM.
`Cc1cc(Nc2nc(-c3ccc(C(C)(C)C)cc3)nc3ccccc23)[nH]n1` [III-41, [2-(4-tert-Butylphenyl)-quinazolin-4-yl]-(5-methyl-2H-pyrazol-3-yl)-amine] yielded a melting point of over 300 °C. The same molecule registered a Ki on GSK-3β (AA 1-420) of 100 to 1000 nM. For the same molecule, on Aurora-2, the Ki was under 100 nM.
As to `Cc1cc(Nc2nc(-c3cccc(Oc4ccccc4)c3)nc3ccccc23)[nH]n1` [III-60, (5-Methyl-2H-pyrazol-3-yl)-[2-(3-phenoxyphenyl)-quinazolin-4-yl]-amine], the melting point is 231 to 232 °C. At GSK-3β (AA 1-420), this molecule returned an inhibition constant Ki of under 100 nM. In addition, at Aurora-2, the Ki was under 100 nM.
`c1ccc(Oc2cccc(-c3nc(Nc4cc(C5CC5)n[nH]4)c4ccccc4n3)c2)cc1` [III-61, (5-Cyclopropyl-2H-pyrazol-3-yl)-[2-(3-phenoxyphenyl)-quinazolin-4-yl]-amine]: the melting point lay within 193 to 195 °C. On GSK-3β (AA 1-420), this molecule showed a Ki of under 100 nM. Besides, at Aurora-2, the Ki is under 100 nM.
For the molecule `c1ccc2c(Nc3ccn[nH]3)nc(-c3ccncc3)nc2c1` [III-64, (2H-Pyrazol-3-yl)-(2-pyridin-4-yl-quinazolin-4-yl)-amine], the melting point is 285 to 286 °C. Moreover, the inhibition constant (Ki) at GSK-3β (AA 1-420) was 100 to 1000 nM. Moreover, the inhibition constant (Ki) at Aurora-2 fell in the range of 100 to 1000 nM.
With `CC(C)c1cc(Nc2nc(-c3ccccc3)nc3ccccc23)[nH]n1` [III-67, (5-Isopropyl-2H-pyrazol-3-yl)-(2-phenyl-quinazolin-4-yl)-amine], the melting point was in the range of 218 to 219 °C. For the same molecule, the Ki on GSK-3β (AA 1-420) is under 100 nM. In addition, the Ki on Aurora-2 is under 100 nM.
Turning to `CC(C)(C)c1cc(Nc2nc(-c3ccccc3)nc3ccccc23)[nH]n1` [III-68, (5-tert-Butyl-2H-pyrazol-3-yl)-(2-phenyl-quinazolin-4-yl)-amine], the melting point was 136 to 137 °C. The Ki on GSK-3β (AA 1-420) was 1000 to 20000 nM. At Aurora-2, this molecule displayed an inhibitory constant (Ki) of 1000 to 20000 nM.
`c1ccc(-c2cc(Nc3nc(-c4ccccc4)nc4ccccc34)[nH]n2)cc1` [III-71, (5-Phenyl-2H-pyrazol-3-yl)-(2-phenyl-quinazolin-4-yl)-amine] gave a melting point of 207 to 209 °C. This molecule gave an inhibitory constant (Ki) at GSK-3β (AA 1-420) of 100 to 1000 nM. The molecule also yielded an inhibition constant (Ki) on Aurora-2 of 100 to 1000 nM.
`COC(=O)c1cc(Nc2nc(-c3ccccc3)nc3ccccc23)[nH]n1` [III-73, (5-Methoxycarbonyl-2H-pyrazol-3-yl)-(2-phenyl-quinazolin-4-yl)-amine] returned a melting point of 271 to 273 °C. The Ki at GSK-3β (AA 1-420) was under 100 nM. On Aurora-2, the inhibition constant Ki fell in the range of 100 to 1000 nM.
For the molecule `OCc1cc(Nc2nc(-c3ccccc3)nc3ccccc23)[nH]n1` [III-74, (5-Hydroxymethyl-2H-pyrazol-3-yl)-(2-phenyl-quinazolin-4-yl)-amine], the melting point fell in the range of 238 to 239 °C. Further, on GSK-3β (AA 1-420), the inhibition constant (Ki) lay in the range of 100 to 1000 nM. On Aurora-2, the Ki lay in the range of 100 to 1000 nM.
With `COCc1cc(Nc2nc(-c3ccccc3)nc3ccccc23)[nH]n1` [III-75, (5-Methoxymethyl-2H-pyrazol-3-yl)-(2-phenyl-quinazolin-4-yl)-amine], the melting point lay in the range of 190 to 191 °C. Also, at GSK-3β (AA 1-420), the inhibition constant (Ki) is under 100 nM. Further, the Ki at Aurora-2 lay within 100 to 1000 nM.
The molecule `COCCCc1cc(Nc2nc(-c3ccccc3)nc3ccccc23)[nH]n1` [III-77, [-(3-Methoxyprop-1-yl)-2H-pyrazol-3-yl]-(2-phenyl-quinazolin-4-yl)-amine] had a melting point of 169 to 170 °C. Further, the inhibition constant (Ki) on GSK-3β (AA 1-420) is under 100 nM. At Aurora-2, this molecule came in with an inhibition constant Ki of under 100 nM.
`CC(C)(C)OC(=O)NCCCc1cc(Nc2nc(-c3ccccc3)nc3ccccc23)[nH]n1` [III-80, [5-(3-tert-Butoxycarbonylaminoprop-1-yl)-2H-pyrazol-3-yl]-(2-phenyl-quinazolin-4-yl)-amine] displayed a melting point of 199 to 200 °C. This molecule also yielded an inhibitory constant (Ki) at Aurora-2 of under 100 nM.
As for `Brc1cn[nH]c1Nc1nc(-c2ccccc2)nc2ccccc12` [III-101, (4-Bromo-2H-pyrazol-3-yl)-(2-phenyl-quinazolin-4-yl)-amine], the melting point came to 189 °C. The molecule further yielded an inhibitory constant (Ki) on GSK-3β (AA 1-420) of 1000 to 20000 nM. The molecule further displayed an inhibition constant (Ki) at Aurora-2 of 1000 to 20000 nM.
Molecule `Cc1n[nH]c(Nc2nc(-c3ccccc3)nc3ccccc23)c1Br` [III-102, (4-Bromo-5-methyl-2H-pyrazol-3-yl)-(2-phenyl-quinazolin-4-yl)-amine] came in with a melting point of 183 to 185 °C. At GSK-3β (AA 1-420), this molecule came in with an inhibitory constant (Ki) of 100 to 1000 nM. This molecule also had an inhibition constant (Ki) on Aurora-2 of 100 to 1000 nM.
As for `N#Cc1cn[nH]c1Nc1nc(-c2ccccc2)nc2ccccc12` [III-103, (4-Cyano-2H-pyrazol-3-yl)-(2-phenyl-quinazolin-4-yl)-amine], the melting point is over 250 °C. This molecule had an inhibition constant Ki at GSK-3β (AA 1-420) of 1000 to 20000 nM. On Aurora-2, the Ki is 1000 to 20000 nM.
In turn, `Cc1cc(Nc2nc(N3CCNCC3)nc3ccccc23)[nH]n1` [III-105, (5-Methyl-2H-pyrazol-3-yl)-(2-piperazin-1-yl-quinazolin-4-yl)-amine] had a melting point of 179 to 181 °C. The molecule further showed a Ki on GSK-3β (AA 1-420) of 100 to 1000 nM. This molecule also returned a Ki at Aurora-2 of 100 to 1000 nM.
As for `Cc1cc(Nc2nc(N3CCC(C)CC3)nc3ccccc23)[nH]n1` [III-106, [2-(4-Methylpiperidin-1-yl)-quinazolin-4-yl]-(5-methyl-2H-pyrazol-3-yl)-amine], the melting point was in the range of 148 to 150 °C. On GSK-3β (AA 1-420), this molecule yielded an inhibitory constant (Ki) of under 100 nM. For the same molecule, the Ki at Aurora-2 was under 100 nM.
The molecule `Cc1cc(Nc2nc(N3CCN(C)CC3)nc3ccccc23)[nH]n1` [III-107, [2-(4-Methylpiperazin-1-yl)-quinazolin-4-yl]-(5-methyl-2H-pyrazol-3-yl)-amine] returned a melting point of 105 to 107 °C. The molecule also displayed a Ki at GSK-3β (AA 1-420) of 100 to 1000 nM. The Ki on Aurora-2 is 100 to 1000 nM.
Consider `Cc1cc(Nc2nc(N3CCC(CCO)CC3)nc3ccccc23)[nH]n1` [III-110], for which the melting point was 175 °C. Further, on GSK-3β (AA 1-420), the inhibition constant (Ki) was in the range of 100 to 1000 nM. The same molecule showed a Ki at Aurora-2 of under 100 nM.
For `Cc1cc(Nc2nc(N3CCC4(CC3)OCCO4)nc3ccccc23)[nH]n1` [III-112, [2-(1,4-Dioxa-8-aza-spiro[4,5]dec-8-yl)-quinazolin-4-yl]-(5-methyl-2H-pyrazol-3-yl)-amine] the same measures were 191 °C, 100 to 1000 nM and under 100 nM.
Take `Cc1cc(Nc2nc(N3CCC(N4CCCC4)CC3)nc3ccccc23)[nH]n1` [III-113]: the melting point came to 191 °C. Moreover, at Aurora-2, the Ki fell in the range of 100 to 1000 nM.
With `Cc1cc(Nc2nc(N3CCC(O)CC3)nc3ccccc23)[nH]n1` [III-114, [2-(4-Hydroxypiperidin-1-yl)-quinazolin-4-yl]-(5-methyl-2H-pyrazol-3-yl)-amine], the melting point came out at 123 °C. This molecule also gave a Ki at GSK-3β (AA 1-420) of 100 to 1000 nM. The inhibitory constant (Ki) on Aurora-2 is under 100 nM.
Molecule `c1ccc2c(c1)CN(c1nc(Nc3cc(C4CC4)n[nH]3)c3ccccc3n1)C2` [III-116, (5-Cyclopropyl-2H-pyrazol-3-yl)-[2-(1,3-dihydro-isoindol-2-yl)-quinazolin-4-yl]-amine] returned a melting point of 237 °C. This molecule also displayed an inhibition constant (Ki) at GSK-3β (AA 1-420) of under 100 nM. In addition, the Ki at Aurora-2 is under 100 nM.
Molecule `c1ccc2c(c1)CCN2c1nc(Nc2cc(C3CC3)n[nH]2)c2ccccc2n1` [III-119, (5-Cyclopropyl-2H-pyrazol-3-yl)-[2-(2,3-dihydro-indol-1-yl)-quinazolin-4-yl]-amine] registered a melting point of 150 to 153 °C. This molecule came in with a Ki at GSK-3β (AA 1-420) of under 100 nM. The Ki on Aurora-2 is under 100 nM.
Molecule `c1ccc2c(c1)CCCN2c1nc(Nc2cc(C3CC3)n[nH]2)c2ccccc2n1` [III-121, (5-Cyclopropyl-2H-pyrazol-3-yl)-[2-(3,4-dihydro-2H-quinolin-1-yl)-quinazolin-4-yl]-amine] returned a melting point of 137 to 145 °C. The same molecule registered a Ki on GSK-3β (AA 1-420) of under 100 nM. This molecule came in with an inhibition constant Ki on Aurora-2 of under 100 nM.
Turning to `c1ccc(-c2nc(Nc3ncn[nH]3)c3ccccc3n2)cc1` [IX-154, (2-Phenyl-quinazolin-4-yl)-(2H-[1,2,4]triazol-3-yl)-amine], the melting point is 266 to 267 °C. The molecule further showed a Ki on GSK-3β (AA 1-420) of 100 to 1000 nM. The inhibition constant (Ki) on Aurora-2 lay in the range of 1000 to 20000 nM.
